Test results reported in US10525041B2, “Fluoroalkyl-substituted aryltriazole derivatives and uses thereof” (BAYER PHARMA AKTIENGESELLSCHAFT, priority 2016, dated 2020).
pIC50: −log10 of the molar value.

Tests used:
human V1a receptor = target: T1, human V1a receptor (Homo sapiens, UniProt P37288); assay: Cellular in vitro assay for vasopressin receptor activity, V1a cell line (aequorin luminescence); assay type: cell-based; settings: for pIC50: CHO cell line transfected with human V1a receptor, agonist [Arg8]-vasopressin at EC50 concentration, read-out: IC50hV1a; for ratio IC50 hV2/hV1a: ratio of the IC50 on human V2 to the IC50 on human V1a
T1 construct: expressed in transfected cells; host or cells: CHO K1 (ATCC), also stably transfected with a modified aequorin
T1 sequence (P37288 whole entry): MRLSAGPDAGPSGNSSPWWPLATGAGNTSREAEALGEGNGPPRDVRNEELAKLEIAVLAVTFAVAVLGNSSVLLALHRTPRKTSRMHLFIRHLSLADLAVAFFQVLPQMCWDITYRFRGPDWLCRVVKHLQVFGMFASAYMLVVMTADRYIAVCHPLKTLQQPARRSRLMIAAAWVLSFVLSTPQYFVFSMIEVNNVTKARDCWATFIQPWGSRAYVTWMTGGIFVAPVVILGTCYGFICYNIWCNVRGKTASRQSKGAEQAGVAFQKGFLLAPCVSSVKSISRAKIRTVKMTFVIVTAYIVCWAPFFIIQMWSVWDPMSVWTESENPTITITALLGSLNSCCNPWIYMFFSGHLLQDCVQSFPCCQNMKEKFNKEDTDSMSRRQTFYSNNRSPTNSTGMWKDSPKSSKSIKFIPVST
Protocol: (§1) B-1. Cellular In Vitro Assay for Determining Vasopressin Receptor Activity
(§2) The identification of agonists and antagonists of the V1a and V2 vasopressin receptors from humans, rats and dogs as well as the quantification of the activity of the compounds of the invention is carried out using recombinant cell lines. These cell lines originally derive from a hamster's ovary epithelial cell (Chinese Hamster Ovary, CHO K1, ATCC: American Type Culture Collection, Manassas, Va. 20108, USA). The test cell lines constitutively express the human, rat or dog V1a or V2 receptors. In case of the Gαq-coupled V1a receptors, cells are also stably transfected with a modified form of the calcium-sensitive photoproteins aequorin (human and rat V1a) or obelin (dog V1a), which, after reconstitution with the cofactor coelenterazine, emit light when there are increases in free calcium concentrations [Rizzuto R, Simpson A W, Brini M, Pozzan T, Nature 358, 325-327 (1992); Illarionov B A, Bondar V S, Illarionova V A, Vysotski E S, Gene 153 (2), 273-274 (1995)]. The resulting vasopressin receptor cells react to stimulation of the recombinantly expressed V1a receptors by intracellular release of calcium ions, which can be quantified by the resulting photoprotein luminescence. The Gs-coupled V2 receptors are stably transfected into cell lines expressing the gene for firefly luciferase under control of a CRE-responsible promoter. Activation of V2 receptors induces the activation of the CRE-responsive promoter via cAMP increase, thereby inducing the expression of firefly luciferase. The light emitted by photoproteins of V1a cell lines as well as the light emitted by firefly luciferase of V2 cell lines corresponds to the activation or inhibition of the respective vasopressin receptor. The bioluminescence of the cell lines is detected using a suitable luminometer [Milligan G, Marshall F, Rees S, Trends in Pharmacological Sciences 17, 235-237 (1996)].
Vasopressin V1a Receptor Cell Lines:
On the day before the assay, the cells are plated out in culture medium (DMEM/F12, 2% FCS, 2 mM glutamine, 10 mM HEPES, 5 μg/ml coelenterazine) in 384-well microtiter plates and kept in a cell incubator (96% humidity, 5% v/v CO2, 37° C.). On the day of the assay, test compounds in various concentrations are placed for 10 minutes in the wells of the microtiter plate before the agonist [Arg^8]-vasopressin at EC50 concentration is added. The resulting light signal is measured immediately in a luminometer.
(§3) Table 1A below lists individual IC50 values for the compounds of the invention (including racemic mixtures as well as separated enantiomers) that were obtained from cell lines transfected with the human V1a or V2 receptor: […]

human V2 receptor = target: T2, human V2 receptor (Homo sapiens, UniProt P30518); assay: Cellular in vitro assay for vasopressin receptor activity, V2 cell line (CRE-luciferase); assay type: cell-based; settings: CHO cell line transfected with human V2 receptor; agonist [Arg8]-vasopressin at EC50 concentration, 3 hours; read-out: IC50hV2
T2 construct: expressed in transfected cells; host or cells: CHO K1 (ATCC) line expressing firefly luciferase under a CRE-responsive promoter
T2 sequence (P30518 whole entry): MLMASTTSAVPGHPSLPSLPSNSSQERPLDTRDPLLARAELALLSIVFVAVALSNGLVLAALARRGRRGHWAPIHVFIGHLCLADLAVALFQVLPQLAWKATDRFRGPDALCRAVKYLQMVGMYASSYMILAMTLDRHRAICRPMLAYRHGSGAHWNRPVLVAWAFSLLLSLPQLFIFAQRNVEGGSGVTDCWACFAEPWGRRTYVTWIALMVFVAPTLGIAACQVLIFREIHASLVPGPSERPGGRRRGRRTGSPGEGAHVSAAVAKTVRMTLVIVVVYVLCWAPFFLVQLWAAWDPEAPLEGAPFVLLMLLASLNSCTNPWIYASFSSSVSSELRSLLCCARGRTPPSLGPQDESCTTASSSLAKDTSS
Protocol: as §1, §2
Vasopressin V2 Receptor Cell Lines:
On the day before the assay, the cells are plated out in culture medium (DMEM/F12, 2% FCS, 2 mM glutamine, 10 mM HEPES) in 384-well microtiter plates and kept in a cell incubator (96% humidity, 5% v/v CO2, 37° C.). On the day of the assay, test compounds in various concentrations and the agonist [Arg^8]-vasopressin at EC50 concentration are added together to the wells, and plates are incubated for 3 hours in a cell incubator. Upon addition of the cell lysis reagent Triton™ and the substrate luciferin, luminescence of firefly luciferase is measured in a luminometer.
as §3

Row | pIC50 (human V1a receptor) | ratio IC50 hV2/hV1a (human V1a receptor) | pIC50 (human V2 receptor) | SMILES
1 | 7.30 | 0.1 | 8.32 | O=c1n(Cc2nc(C(F)(F)F)n(-c3cccc(F)c3)n2)nc(-c2ccc(Cl)cc2)n1C[C@H](O)C(F)(F)F [Example 78, 5-(4-Chlorophenyl)-2-{[1-(3-fluorophenyl)-5-(trifluoromethyl)-1H-1,2,4-triazol-3-yl]methyl}-4-[(2S)-3,3,3-trifluoro-2-hydroxypropyl]-2,4-dihydro-3H-1,2,4-triazol-3-one]
2 | 9.00 | 7.1 | 8.15 | CC(F)c1nc(Cn2nc(-c3ccc(Cl)cc3)n(C[C@H](O)C(F)(F)F)c2=O)nn1-c1cnccc1C(F)(F)F (single isomer, unassigned) [Example 9]
3 | 8.52 | 5.8 | 7.76 | CC(F)c1nc(Cn2nc(-c3ccc(Cl)cc3)n(C[C@H](O)C(F)(F)F)c2=O)nn1-c1ccccc1OC(F)(F)F (single isomer, unassigned) [Example 26]
4 | 7.65 | 11.7 | 6.58 | CC(F)c1nc(Cn2nc(-c3ccc(Cl)cc3)n(C[C@H](O)C(F)(F)F)c2=O)nn1-c1ccccc1C#N (single isomer, unassigned) [Example 39]
5 | 8.69 | 9.0 | 7.73 | CC(F)c1nc(Cn2nc(-c3ccc(Cl)cc3)n(C[C@H](O)C(F)(F)F)c2=O)nn1-c1cnccc1Cl (mixture of isomers) [Example 4, 5-(4-Chlorophenyl)-2-({1-(4-chloropyridin-3-yl)-5-[1-fluoroethyl]-1H-1,2,4-triazol-3-yl}methyl)-4-[(2S)-3,3,3-trifluoro-2-hydroxypropyl]-2,4-dihydro-3H-1,2,4-triazol-3-one]
6 | 8.55 | 5.2 | 7.83 | CC(F)c1nc(Cn2nc(-c3ccc(Cl)cc3)n(C[C@H](O)C(F)(F)F)c2=O)nn1-c1ncccc1Cl (mixture of isomers) [Example 19, 5-(4-Chlorophenyl)-2-({1-(3-chloropyridin-2-yl)-5-[1-fluoroethyl]-1H-1,2,4-triazol-3-yl}methyl)-4-[(2S)-3,3,3-trifluoro-2-hydroxypropyl]-2,4-dihydro-3H-1,2,4-triazol-3-one]
7 | 8.96 | 4.2 | 8.33 | CC(F)c1nc(Cn2nc(-c3ccc(Cl)cc3)n(C[C@H](O)C(F)(F)F)c2=O)nn1-c1ccccc1C(F)(F)F (single isomer, unassigned) [Example 24]
8 | 8.76 | 1.3 | 8.64 | CC(F)(F)c1nc(Cn2nc(-c3ccc(Cl)cc3)n(C[C@H](O)C(F)(F)F)c2=O)nn1-c1c(F)cccc1F [Example 70, 5-(4-Chlorophenyl)-2-{[5-(1,1-difluoroethyl)-1-(2,6-difluorophenyl)-1H-1,2,4-triazol-3-yl]methyl}-4-[(2S)-3,3,3-trifluoro-2-hydroxypropyl]-2,4-dihydro-3H-1,2,4-triazol-3-one]
9 | 8.42 | 5.9 | 7.65 | CC(F)c1nc(Cn2nc(-c3ccc(Cl)cc3)n(C[C@H](O)C(F)(F)F)c2=O)nn1-c1ncccc1C(F)(F)F (single isomer, unassigned) [Example 12]
10 | 9.05 | 1.0 | 9.03 | CC(F)c1nc(Cn2nc(-c3ccc(Cl)cc3)n(C[C@H](O)C(F)(F)F)c2=O)nn1-c1ccccc1Cl (single isomer, unassigned) [Example 3]
11 | 7.81 | 0.3 | 8.28 | CC(F)(F)c1nc(Cn2nc(-c3ccc(Cl)cc3)n(C[C@H](O)C(F)(F)F)c2=O)nn1-c1cccc(F)c1 [Example 56, 5-(4-Chlorophenyl)-2-{[5-(1,1-difluoroethyl)-1-(3-fluorophenyl)-1H-1,2,4-triazol-3-yl]methyl}-4-[(2S)-3,3,3-trifluoro-2-hydroxypropyl]-2,4-dihydro-3H-1,2,4-triazol-3-one]
12 | 8.72 | 2.6 | 8.31 | CCOc1ccccc1-n1nc(Cn2nc(-c3ccc(Cl)cc3)n(C[C@H](O)C(F)(F)F)c2=O)nc1C(C)F (mixture of isomers) [Example 42, 5-(4-Chlorophenyl)-2-({1-(2-ethoxyphenyl)-5-[1-fluoroethyl]-1H-1,2,4-triazol-3-yl}methyl)-4-[(2S)-3,3,3-trifluoro-2-hydroxypropyl]-2,4-dihydro-3H-1,2,4-triazol-3-one]
13 | 8.38 | 10.7 | 7.35 | CC(F)(F)c1nc(Cn2nc(-c3ccc(Cl)cc3)n(C[C@H](O)C(F)(F)F)c2=O)nn1-c1ccccc1OC(F)(F)F [Example 61, 5-(4-Chlorophenyl)-2-({5-(1,1-difluoroethyl)-1-[2-(trifluoromethoxy)phenyl]-1H-1,2,4-triazol-3-yl}methyl)-4-[(2S)-3,3,3-trifluoro-2-hydroxypropyl]-2,4-dihydro-3H-1,2,4-triazol-3-one]
14 | 8.33 | 5.7 | 7.57 | CC(F)(F)c1nc(Cn2nc(-c3ccc(Cl)cc3)n(C[C@H](O)C(F)(F)F)c2=O)nn1-c1ncccc1C(F)(F)F [Example 59, 5-(4-Chlorophenyl)-2-({5-(1,1-difluoroethyl)-1-[3-(trifluoromethyl)pyridin-2-yl]-1H-1,2,4-triazol-3-yl}methyl)-4-[(2S)-3,3,3-trifluoro-2-hydroxypropyl]-2,4-dihydro-3H-1,2,4-triazol-3-one]
15 | 8.95 | 11.1 | 7.90 | CC(F)c1nc(Cn2nc(-c3ccc(Cl)cc3)n(C[C@H](O)C(F)(F)F)c2=O)nn1-c1cnccc1C(F)(F)F (stereo partly drawn) [Example 7, 5-(4-Chlorophenyl)-2-({5-[1-fluoroethyl]-1-[4-(trifluoromethyl)pyridin-3-yl]-1H-1,2,4-triazol-3-yl}methyl)-4-[(2S)-3,3,3-trifluoro-2-hydroxypropyl]-2,4-dihydro-3H-1,2,4-triazol-3-one]
16 | 8.76 | 5.6 | 8.01 | CC(F)c1nc(Cn2nc(-c3ccc(Cl)cc3)n(C[C@H](O)C(F)(F)F)c2=O)nn1-c1ccccc1OC(F)(F)F (single isomer, unassigned) [Example 27]
17 | 8.70 | 12.3 | 7.61 | CC(F)(F)c1nc(Cn2nc(-c3ccc(Cl)cc3)n(C[C@H](O)C(F)(F)F)c2=O)nn1-c1cnccc1C(F)(F)F [Example 57, 5-(4-Chlorophenyl)-2-({5-(1,1-difluoroethyl)-1-[4-(trifluoromethyl)pyridin-3-yl]-1H-1,2,4-triazol-3-yl}methyl)-4-[(2S)-3,3,3-trifluoro-2-hydroxypropyl]-2,4-dihydro-3H-1,2,4-triazol-3-one]
18 | 8.76 | 2.6 | 8.34 | CC(F)c1nc(Cn2nc(-c3ccc(Cl)cc3)n(C[C@H](O)C(F)(F)F)c2=O)nn1-c1ccccc1OC(F)F (mixture of isomers) [Example 31, 5-(4-Chlorophenyl)-2-({1-[2-(difluoromethoxy)phenyl]-5-[1-fluoroethyl]-1H-1,2,4-triazol-3-yl}methyl)-4-[(2S)-3,3,3-trifluoro-2-hydroxypropyl]-2,4-dihydro-3H-1,2,4-triazol-3-one]
